The source of these data is patent publication US5723306A, “Monoclonal antibodies for the detection of pyrethroids and a process for their production” (Dragerwerk Aktiengesellschaft, priority 1993, dated 1998).

Holding throughout (type): binding, mouse
Assay [1] concerns hybridoma clone MAB 1/E2-5/B5. The assay is described as follows: competitive immunoassay (ELISA), cross reactivity with MAB 1/E2-5/B5. Particulars: n.b. = not determinable. How it is done:
(§1) The screening conjugates described in Section 1.2 were used for this purpose. In addition, "Maxisorp" (from the Nunc Corporation) microtiter plates were used. The immunoscreening method, i.e., an indirect, competitive immunoassay with free antibodies, is shown in the form of a schematic diagram in FIG. 7. First, each of the microtiter plate depressions was coated with 300 μL of hapten OVA conjugate (10 μg/mL in carbonate buffer) (coating). This was carded out over the course of 15-18 hours at 4° C. Then the depressions were washed 3 times with, for example, PBS Tween 20 buffer. To block the unoccupied bonding sites on the microtiter plate, about 300 μL of 0.1% OVA solution was added to each depression. This batch was incubated for 1-2 hours and then washed again as described. To verify the results, two separate screening processes were used (FIG. 7):
(§2) In this immunoassay, the hapten-OVA conjugates bound in the solid phase (Section 1.2) compete with the free antigen in the form of a solution of a mixture of pyrethroids. For the direct detection (Section 5.1), 100 μL of PBS buffer and 100 μL of cell culture supernatant (Section 4) per depression are incubated for one hour at room temperature under gentle agitation. Then a washing step is carried out with PBS Tween 20 buffer. This is followed by incubation with the peroxidase-(POD)-conjugated anti-mouse antibodies known to those skilled in the art. After the addition of enzyme substrate, the color is developed. The reaction is stopped after 30 minutes with 2N H2 SO4 and evaluated by spectrophotometry. The positive hybridoma cells, which secrete a specific antibody, give a strong color signal.
(§3) For this purpose, 100 μL of analyte solution (10 mg/L of pyrethroid substance in mixture MIX I/II in PBS buffed and 100 μL of culture supernatant (Section 4) per depression in the microtiter plate are incubated for 1 hour at room temperature.
(§4) If the cell culture supernatant contains specific antibodies with high affinity for at least one substance in the mixture in question (MIX I/II), these bind to the free hapten present in excess (pyrethrins/pyrethroids) and not to the hapten conjugate bound in the solid phase. The monoclonal antibodies bound to the hapten are then removed in the following washing step. This is followed by the incubation, known to those skilled in the art, with peroxidase-(POD)-conjugated anti-mouse antibodies and by subsequent addition of enzyme substrate and color development. After a predetermined incubation time, the microtiter plates are evaluated by spectrophotometry. Positive hybridoma cells which secrete an antibody selective for the pyrethroids in MIX I/II give a weaker color signal or no signal at all. Hybridoma cells which secrete antibodies which bind non-specifically to the hapten conjugate cannot be displaced by the excess pyrethroid and give a corresponding color signal. If no antibodies are present in the culture supernatant, there is no color reaction in either of the two cases.
(§5) Pyrethrum, pyrethroids, their derivatives, and/or their metabolites are detected with the help of the hapten screening conjugates and biotin tracers described in Section 1 and by the use of the competitive immunoassay (ELISA) described in Section 5.
(§6) In the direct-competitive test for low-molecular substances such as pyrethroids, a competition for a constant number of antibody binding sites takes place between an unmarked analyte of unknown quantity (here: pyrethroid) and a tracer (marked hapten) of known quantity. The antibody is immobilized on a solid phase. Depending on the amount of unmarked analyte in the sample, the antibody binding sites are occupied to a greater or lesser extent by tracer or analyte. The tracer is detected by a color reaction, which means that the detection signal on the solid phase is inversely proportional to the amount of analyte detected. The color development is measured by spectrophotometry at a defined wavelength. […]
Background: In an ELISA, binding on a coated surface is turned into a signal by an enzyme label.

In assay [2] the test system is hybridoma clone MAB 3/B4-1/F8. The assay is described as follows: competitive immunoassay (ELISA), cross reactivity with MAB 3/B4-1/F8. To be noted: n.b. = not determinable. How it is done: as §1, §2, §3, §4, §5, §6
Assay [3] relates to isolated monoclonal antibodies (groups 3/B4-1/F8 and 1/E2-5/B5). Nature of the assay: competitive ELISA with the isolated monoclonal antibodies (both groups). To be noted: both antibody groups. On the procedure:
as §1, with “This batch was incubated for 1-2 hours and then washed again as described. To verify the results, two separate screening processes were used (FIG. 7):” left out
In this immunoassay, the hapten-OVA conjugates bound in the solid phase (Section 1.2) compete with the free antigen in the form of a solution of a mixture of pyrethroids. […] The reaction is stopped after 30 minutes with 2N H2 SO4 and evaluated by spectrophotometry. […]
If the cell culture supernatant contains specific antibodies with high affinity for at least one substance in the mixture in question (MIX I/II), these bind to the free hapten present in excess (pyrethrins/pyrethroids) and not to the hapten conjugate bound in the solid phase. […] After a predetermined incubation time, the microtiter plates are evaluated by spectrophotometry. […]

Structures are written as SMILES.

As for `CC(C)=CC1C(C(=O)O)C1(C)C` (stereo not shown) [CTS, chrysanthemum acid], the “% cross reactivity” value in assay [1] and in assay [2] was “n.b” throughout.

Regarding `O=C(O)c1cccc(Oc2ccccc2)c1` [PBZ, 3-phenoxybenzoic acid], the “% cross reactivity” value in assay [1] and in assay [2] was “n.b” in each case.

For the compound `C=CCC1=C(C)C(OC(=O)C2C(C=C(C)C)C2(C)C)CC1=O` (stereo not shown) [allethrin], the “% cross reactivity” value in assay [1] was determined as 100%; in assay [2], 45%.

Regarding `C=CCC1=C(C)C(OC(=O)[C@@H]2[C@@H](C=C(C)C)C2(C)C)CC1=O` (stereo partly shown) [bioallethrin], the results for the “% cross reactivity” value in assay [1] and in assay [2] were 104% and 100%, respectively.

For the compound `CC1(C)[C@H](C(=O)O)[C@@H]1C=C(Cl)Cl` [cis-PMS, (1R,cis)-permethric acid], the “% cross reactivity” value in assay [1] and in assay [2] was “n.b” throughout. For the same compound, the “cross reactivity (in words)” value in assay [3] is “little or no cross-reactivity”.

As to `CC1(C)C(C=C(Cl)Cl)C1C(=O)OC(C#N)c1ccc(F)c(Oc2ccccc2)c1` (stereo not shown) [cyfluthrin], the “% cross reactivity” value in assay [2] is “n.b”.

Regarding `CC1(C)C(C=C(Cl)Cl)C1C(=O)OC(C#N)c1cccc(Oc2ccccc2)c1` (stereo not shown) [cypermethrin], the “% cross reactivity” value in assay [2] was “n.b”.

As to `CC1(C)[C@H](C(=O)O[C@H](C#N)c2cccc(Oc3ccccc3)c2)[C@@H]1C=C(Br)Br` [deltamethrin], the “% cross reactivity” value in assay [1] and in assay [2] was “n.b” in each case.

For `CC1(C)[C@H](C=C(Cl)Cl)[C@H]1C(=O)OCc1c(F)c(F)c(F)c(F)c1F` [fenfluthrin], the “% cross reactivity” value in assay [1] worked out at 13%; in assay [2], 2%.

As for `CC(C)C(C(=O)OC(C#N)c1cccc(Oc2ccccc2)c1)c1ccc(Cl)cc1` (stereo not shown) [fenvalerat], the “% cross reactivity” value in assay [1] and in assay [2] was “n.b” in each case.

Consider `CC1(C)C(C=C(Cl)Cl)C1C(=O)OCc1cccc(Oc2ccccc2)c1` (stereo not shown) [permethrin], for which the “% cross reactivity” value in assay [2] is recorded as “n.b”.

As for `CC(C)=CC1C(C(=O)OCc2cccc(Oc3ccccc3)c2)C1(C)C` (stereo not shown) [phenothrin], the “% cross reactivity” value is listed as 86% in assay [1] and “n.b” in assay [2].

In the case of `CC1(C)[C@H](C=C(Cl)Cl)[C@H]1C(=O)O` [trans-PMS, (1R,trans)-permethric acid], the “% cross reactivity” value was above 1% in assay [1] and “n.b” in assay [2]. For the same compound, the “cross reactivity (in words)” value in assay [3] is “little or no cross-reactivity”.
